Like-named read-outs stand apart in the source and are kept apart here.
What was measured:
[1] = tested on: LoVo cells; experiment: LoVo cell proliferation assay (CellTiter-Glo); assay type: cell-based; settings: maximum concentration 10 µM, 9 concentrations
Procedure, shortened: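 LoVo cells, 2,000 per well, were treated after overnight attachment with 9-point 3-fold dilutions from 10 µM for 5 days at 37 °C. Viability was read by CellTiter-Glo luminescence. Inhibition % was taken relative to DMSO control, and IC50 came from the concentration–inhibition curve.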

[2] = biological target: T1, ATR kinase (Homo sapiens, UniProt Q13535); experiment: Inhibitory effect on ATR kinase activity (Caliper mobility shift, FAM-labeled RAD17 peptide substrate); assay type: biochemical
T1 construct: purchased Eurofins 14-953
Procedure, shortened: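 Caliper mobility-shift assay with 1 nM ATR, FAM-labeled RAD17 peptide […] and 5 mM ATP in HEPES pH 7.5 with 10 mM MnCl2, run 3 h at 28 °C and stopped with EDTA. Compounds were tested in 10-point 3-fold dilutions from 1 µM. IC50 was fitted from % inhibition of substrate conversion versus blank control.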

[3] = Homo sapiens, LoVo, 120 h, LoVo cells, 2,000 cells per well, 5 days incubation, CellTiter-Glo, read-out: LoVo IC50
[4] = 1 nM ATR kinase (Eurofins), 28°C for 3 hours, maximum concentration 1 µM, 10 concentrations, read-out: ATR kinase IC50
[5] = Homo sapiens, LoVo, 120 h, read-out: LoVo IC50 (nM), LoVo cells, 2,000 cells per well, 5 days incubation, CellTiter-Glo
[6] = read-out: ATR kinase IC50, 1 nM ATR kinase (Eurofins), 28°C for 3 hours, maximum concentration 1 µM, 10 concentrations
[7] = LoVo cells, 2,000 cells per well, 5 days incubation, CellTiter-Glo, read-out: LoVo IC50

T1 sequence (Q13535 whole entry): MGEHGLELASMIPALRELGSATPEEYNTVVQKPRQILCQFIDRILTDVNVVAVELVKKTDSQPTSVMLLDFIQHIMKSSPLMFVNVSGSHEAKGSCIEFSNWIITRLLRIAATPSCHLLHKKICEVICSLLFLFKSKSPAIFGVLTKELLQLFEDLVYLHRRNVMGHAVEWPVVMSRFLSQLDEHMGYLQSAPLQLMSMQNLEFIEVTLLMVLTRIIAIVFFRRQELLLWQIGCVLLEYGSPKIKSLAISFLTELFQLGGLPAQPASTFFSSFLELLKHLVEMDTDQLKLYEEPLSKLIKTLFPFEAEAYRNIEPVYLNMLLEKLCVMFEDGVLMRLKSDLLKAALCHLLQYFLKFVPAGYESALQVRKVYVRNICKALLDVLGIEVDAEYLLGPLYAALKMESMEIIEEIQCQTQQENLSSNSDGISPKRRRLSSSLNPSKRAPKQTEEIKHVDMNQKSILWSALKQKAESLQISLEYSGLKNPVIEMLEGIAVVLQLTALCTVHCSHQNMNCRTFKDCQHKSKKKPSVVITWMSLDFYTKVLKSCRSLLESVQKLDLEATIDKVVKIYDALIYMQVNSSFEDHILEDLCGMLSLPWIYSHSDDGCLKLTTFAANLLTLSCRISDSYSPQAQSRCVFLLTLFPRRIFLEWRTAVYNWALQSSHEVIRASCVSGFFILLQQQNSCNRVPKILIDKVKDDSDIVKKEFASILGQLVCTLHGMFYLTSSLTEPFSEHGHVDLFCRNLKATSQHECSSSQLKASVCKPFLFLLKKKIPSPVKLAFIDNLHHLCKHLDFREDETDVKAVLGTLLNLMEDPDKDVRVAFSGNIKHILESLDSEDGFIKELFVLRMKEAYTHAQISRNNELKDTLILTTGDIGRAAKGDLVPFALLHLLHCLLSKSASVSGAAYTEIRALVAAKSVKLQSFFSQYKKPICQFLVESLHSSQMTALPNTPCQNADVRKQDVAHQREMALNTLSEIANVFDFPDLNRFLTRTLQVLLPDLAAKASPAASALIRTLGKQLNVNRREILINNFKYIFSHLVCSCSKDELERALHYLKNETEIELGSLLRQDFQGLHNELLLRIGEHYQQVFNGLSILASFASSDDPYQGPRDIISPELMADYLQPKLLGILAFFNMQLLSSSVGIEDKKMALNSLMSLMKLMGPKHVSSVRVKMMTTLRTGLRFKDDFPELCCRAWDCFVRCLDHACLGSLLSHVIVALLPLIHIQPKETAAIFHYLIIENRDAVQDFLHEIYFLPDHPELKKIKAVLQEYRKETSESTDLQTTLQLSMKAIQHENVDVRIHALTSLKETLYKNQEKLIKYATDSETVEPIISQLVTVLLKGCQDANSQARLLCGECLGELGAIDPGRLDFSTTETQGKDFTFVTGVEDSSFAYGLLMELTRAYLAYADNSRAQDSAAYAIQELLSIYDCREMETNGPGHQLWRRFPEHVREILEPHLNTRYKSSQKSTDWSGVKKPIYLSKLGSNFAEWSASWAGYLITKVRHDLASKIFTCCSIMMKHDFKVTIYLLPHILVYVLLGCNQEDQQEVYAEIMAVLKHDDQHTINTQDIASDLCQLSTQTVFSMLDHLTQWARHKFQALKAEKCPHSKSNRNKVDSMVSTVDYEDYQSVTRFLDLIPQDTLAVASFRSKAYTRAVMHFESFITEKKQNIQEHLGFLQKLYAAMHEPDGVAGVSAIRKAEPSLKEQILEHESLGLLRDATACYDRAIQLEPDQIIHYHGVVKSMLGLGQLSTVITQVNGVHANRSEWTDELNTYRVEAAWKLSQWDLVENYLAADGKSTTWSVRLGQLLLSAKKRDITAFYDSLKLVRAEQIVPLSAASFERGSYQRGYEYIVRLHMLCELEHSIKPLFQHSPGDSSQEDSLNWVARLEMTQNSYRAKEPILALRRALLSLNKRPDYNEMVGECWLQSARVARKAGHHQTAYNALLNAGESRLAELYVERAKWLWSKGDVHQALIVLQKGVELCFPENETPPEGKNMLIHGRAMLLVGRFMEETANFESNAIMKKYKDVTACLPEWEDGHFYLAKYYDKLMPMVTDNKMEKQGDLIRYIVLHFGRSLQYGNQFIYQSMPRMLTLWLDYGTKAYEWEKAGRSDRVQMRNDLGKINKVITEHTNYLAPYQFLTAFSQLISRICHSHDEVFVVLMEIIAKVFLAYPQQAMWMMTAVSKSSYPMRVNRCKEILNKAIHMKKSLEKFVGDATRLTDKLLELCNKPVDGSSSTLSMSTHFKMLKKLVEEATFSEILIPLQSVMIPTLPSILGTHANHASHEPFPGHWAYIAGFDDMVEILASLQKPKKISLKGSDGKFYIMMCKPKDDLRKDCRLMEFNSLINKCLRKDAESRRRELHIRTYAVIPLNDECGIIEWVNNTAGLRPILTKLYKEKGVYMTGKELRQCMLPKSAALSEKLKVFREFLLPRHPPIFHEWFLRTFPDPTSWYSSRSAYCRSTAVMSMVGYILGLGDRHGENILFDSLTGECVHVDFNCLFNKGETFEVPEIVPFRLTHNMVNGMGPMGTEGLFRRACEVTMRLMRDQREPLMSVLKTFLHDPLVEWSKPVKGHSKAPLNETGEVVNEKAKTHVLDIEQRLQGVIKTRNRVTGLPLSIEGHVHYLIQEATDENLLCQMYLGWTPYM
T1 sequence (Q8WXE1 whole entry partner): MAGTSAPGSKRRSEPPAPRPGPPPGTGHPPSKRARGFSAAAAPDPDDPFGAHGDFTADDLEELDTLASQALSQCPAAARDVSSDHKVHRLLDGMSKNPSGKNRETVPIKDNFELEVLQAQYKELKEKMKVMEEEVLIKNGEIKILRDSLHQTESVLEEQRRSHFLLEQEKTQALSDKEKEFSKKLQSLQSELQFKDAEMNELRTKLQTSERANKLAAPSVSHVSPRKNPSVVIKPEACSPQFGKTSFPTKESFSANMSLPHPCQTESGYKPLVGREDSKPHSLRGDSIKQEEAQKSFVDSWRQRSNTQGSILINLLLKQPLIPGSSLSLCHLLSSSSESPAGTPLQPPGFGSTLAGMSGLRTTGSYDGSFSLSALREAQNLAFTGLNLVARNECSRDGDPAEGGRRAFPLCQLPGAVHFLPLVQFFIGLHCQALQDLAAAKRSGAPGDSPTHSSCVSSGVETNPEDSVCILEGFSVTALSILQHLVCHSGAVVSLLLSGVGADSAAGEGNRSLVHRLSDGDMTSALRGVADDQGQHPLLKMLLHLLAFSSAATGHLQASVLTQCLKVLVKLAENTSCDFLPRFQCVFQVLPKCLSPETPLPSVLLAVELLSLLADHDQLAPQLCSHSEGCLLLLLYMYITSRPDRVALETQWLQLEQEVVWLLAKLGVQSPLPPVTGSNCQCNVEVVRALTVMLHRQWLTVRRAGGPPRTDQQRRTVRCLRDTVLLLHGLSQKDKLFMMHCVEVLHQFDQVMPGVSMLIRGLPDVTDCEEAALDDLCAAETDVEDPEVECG

| Structure (SMILES) | IC50 [1, 3] | IC50 [2, 4] | further results |
| --- | --- | --- | --- |
| C#CC(C)N1CCc2nn(-c3cc[nH]n3)c3nc(N4CCOC[C@H]4C)cc(c23)C1 (stereo partly drawn) [Compound 21, (3R)-4-(7-(but-3-yn-2-yl)-2-(1H-pyrazol-3-yl)-6,7,8,9-tetrahydro-2H-1,2,3,7-tetraazabenzo[cd]azulen-4-yl)-3-methylmorpholine] | 100 to 1000 nM | 10 to 100 nM | – |
| C[C@@H]1COCCN1c1cc2c3c(n1)c(-c1cc[nH]n1)nn3CCC(=O)N2C12CC(C1)C2 [Compound 110, (R)-6-(bicyclo[1.1.1]pentan-1-yl)-4-(3-methylmorpholinyl)-2-(1H-pyrazol-3-yl)-8,9-dihydro-1,3,6,9a-tetraazabenzo[cd]azulene-7(6H)-one] | – | – | IC50 [1, 5]: < 100 nM; IC50 [2, 6]: < 10 nM |
| CC1c2cc(N3CCOC[C@H]3C)nc3c2c(nn3-c2cc[nH]n2)CCN1S(C)(=O)=O (single isomer, unassigned) [Compound 39A] | – | < 10 nM | IC50 [1, 7]: < 100 nM |
| C[C@@H]1COCCN1c1cc2c3c(nn(-c4cc[nH]n4)c3n1)CCN(C(=O)C1CC(F)(F)C1)C2 [Compound 9, (R)-(3,3-difluorocyclobutyl)(4-(3-methylmorpholino)-2-(1H-pyrazol-3-yl)-2,6,8,9-tetrahydro-7H-1,2,3,7-tetraazabenzo[cd]azulene-7-yl)methanone] | > 1000 nM | 10 to 100 nM | – |
| C[C@@H]1COCCN1c1cc2c3c(n1)c(-c1cc[nH]n1)nn3CCC(=O)N2C1(CF)CC1 [Compound 112, (R)-6-(1-(fluoromethyl)cyclopropyl)-4-(3-methylmorpholinyl)-2-(1H-pyrazol-3-yl)-8,9-dihydro-1,3,6,9a-tetraazabenzo[cd]azulene-7(6H)-one] | – | – | IC50 [1, 5]: < 100 nM; IC50 [2, 6]: < 10 nM |
| C[C@@H]1COCCN1c1cc2c3c(n1)c(-c1cc[nH]n1)nn3CCC(=O)N2 [Compound 93, (R)-4-(3-methylmorpholino)-2-(1H-pyrazol-3-yl)-8,9-dihydro-1,3,6,9a-tetraazabenzo[cd]azulene-7(6H)-one] | 100 to 1000 nM | 10 to 100 nM | – |
| CC1c2cc(N3CCOC[C@H]3C)nc3c2c(nn3-c2cc[nH]n2)CCN1C1(C#N)CC1 (single isomer, unassigned) [Compound 42B] | – | 10 to 100 nM | IC50 [1, 7]: < 100 nM |
| CN=S(C)(=O)N1CCc2nn(-c3cc[nH]n3)c3nc(N4CCOC[C@H]4C)cc(c23)C1C (single isomer, unassigned) [Compound 152B] | – | 10 to 100 nM | IC50 [1, 7]: 100 to 1000 nM |
| CC(C)C1(O)CCn2nc(-c3cc[nH]n3)c3nc(N4CCOC[C@H]4C)cc1c32 (single isomer, unassigned) [Compound 72B] | – | 100 to 1000 nM | IC50 [1, 7]: 100 to 1000 nM |
| C[C@@H]1COCCN1c1cc2c3c(nn(-c4cc[nH]n4)c3n1)CCN(S(C)(=O)=O)C2C1CC1 (single isomer, unassigned) [Compound 138B] | – | < 10 nM | IC50 [1, 7]: < 100 nM |
| CC1c2cc(N3CCOC[C@H]3C)nc3c2c(nn3-c2cc[nH]n2)CCN1S(=O)(=O)C1(C)CC1 (single isomer, unassigned) [Compound 49B] | – | 10 to 100 nM | IC50 [1, 7]: 100 to 1000 nM |
| CC(C)C1c2cc(N3CCOC[C@H]3C)nc3c2c(nn3-c2cc[nH]n2)CCN1C (single isomer, unassigned) [Compound 141B] | – | < 10 nM | IC50 [1, 7]: < 100 nM |
| C[C@@H]1COCCN1c1cc2c3c(nn(-c4cc[nH]n4)c3n1)CCC(=O)N2CC1(C)CC1 [Compound 77, (R)-6-((1-methylcyclopropyl)methyl)-4-(3-methylmorpholino)-2-(1H-pyrazol-3-yl)-2,6,8,9-tetrahydro-7H-1,2,3,6-tetraazabenzo[cd]azulene-7-one] | < 100 nM | < 10 nM | – |
| CCC1c2cc(N3CCOC[C@H]3C)nc3c2c(nn3-c2cc[nH]n2)CCN1S(C)(=O)=O (single isomer, unassigned) [Compound 144A] | 100 to 1000 nM | < 10 nM | – |
| CN=S(C)(=O)N1CCc2nn(-c3cc[nH]n3)c3nc(N4CCOC[C@H]4C)cc(c23)C1C (single isomer, unassigned) [Compound 152A] | < 100 nM | < 10 nM | – |
| CC1c2cc(N3CCOC[C@H]3C)nc3c2c(nn3-c2cc[nH]n2)CCN1C(=O)C1(C(F)(F)F)CC1 (single isomer, unassigned) [Compound 33B] | – | – | IC50 ([1]; read-out: LoVo IC50, LoVo cells, 2,000 cells per well, 5 days incubation, CellTiter-Glo): 100 to 1000 nM; IC50 [2, 6]: 100 to 1000 nM |
| C[C@@H]1COCCN1c1cc2c3c(nn(-c4cc[nH]n4)c3n1)CCN(C1CC3(CC3)C1)C2 [Compound 11] | 100 to 1000 nM | 10 to 100 nM | – |

| Structure (SMILES) | IC50 [1, 3] | IC50 [2, 4] | further results |
| --- | --- | --- | --- |
| CC1c2cc(N3CCOC[C@H]3C)nc3c2c(nn3-c2cc[nH]n2)CCN1S(=O)(=O)C1(C)CC1 (single isomer, unassigned) [Compound 49A] | < 100 nM | < 10 nM | – |
| CC1c2cc(N3CCOC[C@H]3C)nc3c2c(nn3-c2cc[nH]n2)CCN1C(=O)C1(C(F)(F)F)CC1 (single isomer, unassigned) [Compound 33A] | – | – | IC50 [1, 5]: < 100 nM; IC50 [2, 6]: < 10 nM |
| C[C@@H]1COCCN1c1cc2c3c(nn(-c4cc[nH]n4)c3n1)CCOC2(C)C [Compound 146, (R)-6,6-dimethyl-4-(3-methylmorpholino)-2-(1H-pyrazol-3-yl)-2,6,8,9-tetrahydro-7-oxa-1,2,3-triazabenzo[cd]azulene] | < 100 nM | < 10 nM | – |
| C[C@@H]1COCCN1c1cc2c3c(nn(-c4cc[nH]n4)c3n1)CCN(C1CC(C(F)(F)F)C1)C2 (single isomer, unassigned) [Compound 13B] | – | 100 to 1000 nM | IC50 [1, 7]: > 1000 nM |
| C[C@@H]1COCCN1c1cc2c3c(nn(-c4cc[nH]n4)c3n1)CCN(C1CC(F)(F)C1)C2 [Compound 7, (R)-4-(7-(3,3-difluorocyclobutyl)-2-(1H-pyrazol-3-yl)-6,7,8,9-tetrahydro-2H-1,2,3,7-tetraazabenzo[cd]azulen-4-yl)-3-methylmorpholine] | 100 to 1000 nM | 10 to 100 nM | – |
| CC1c2cc(N3CCOC[C@H]3C)nc3c2c(nn3-c2cc[nH]n2)CCN1C1(C#N)CC1 (single isomer, unassigned) [Compound 42A] | < 100 nM | < 10 nM | – |
| C[C@@H]1COCCN1c1cc2c3c(n1)c(-c1cc[nH]n1)nn3CCC(=O)N2C1CCOC1 (stereo partly drawn) [Compound 90, 4-((R)-3-methylmorpholino)-2-(1H-pyrazol-3-yl)-6-(tetrahydrofuran-3-yl)-8,9-dihydro-1,3,6,9a-tetraazabenzo[cd]azulene-7(6H)-one] | 100 to 1000 nM | 10 to 100 nM | – |
| C[C@@H]1COCCN1c1cc2c3c(nn(-c4cc[nH]n4)c3n1)CCN(S(C)(=N)=O)C2 (stereo partly drawn) [Compound 28, (3R)-3-methyl-4-(7-(S-methylsulfonylimino)-2-(1H-pyrazol-3-yl)-6,7,8,9-tetrahydro-2H-1,2,3,7-tetraazabenzo[cd]azulen-4-yl)morpholine] | > 1000 nM | 10 to 100 nM | – |
| C[C@@H]1COCCN1c1cc2c3c(n1)c(-c1cc[nH]n1)nn3CCC(=O)N2C1CC2(CC(O)C2)C1 (stereo partly drawn) [Compound 97, (R)-6-(6-hydroxyspiro[3.3]hept-2-yl)-4-(3-methylmorpholinyl)-2-(1H-pyrazol-3-yl)-8,9-dihydro-1,3,6,9a-tetraazabenzo[cd]azulene-7(6H)-one] | – | – | IC50 [1, 5]: 100 to 1000 nM; IC50 [2, 6]: < 10 nM |
| C[C@@H]1COCCN1c1cc2c3c(nc(-c4cc[nH]n4)n3n1)CCC(=O)N2C1(C)CC1 [Compound 154, (R)-6-(1-methylcyclopropyl)-4-(3-methylmorpholino)-2-(1H-pyrazol-3-yl)-8,9-dihydro-1,2a,3,6-tetraazabenzo[cd]azulene-7(6H )-one] | < 100 nM | < 10 nM | – |
| CC1c2cc(N3CCOC[C@H]3C)nc3c2c(nn3-c2cc[nH]n2)CCN1C(=O)C1(C#N)CC1 (single isomer, unassigned) [Compound 40A] | – | – | IC50 [1, 5]: 100 to 1000 nM; IC50 [2, 6]: < 10 nM |
| C[C@@H]1COCCN1c1cc2c3c(n1)c(-c1cc[nH]n1)nn3CCC(=O)N2C1CC1 [Compound 82, (R)-6-cyclopropyl-4-(3-methylmorpholino)-2-(1H-pyrazol-3-yl)-8,9-dihydro-1,3,6,9a-tetraazabenzo[cd]azulene-7(6H)-one] | < 100 nM | < 10 nM | – |
| CC1Cn2nc(-c3cc[nH]n3)c3nc(N4CCOC[C@H]4C)cc(c32)N(C(C)C)C1=O (stereo partly drawn) [Compound 119, 6-isopropyl-8-methyl-4-((R)-3-methylmorpholino)-2-(1H-pyrazol-3-yl)-8,9-dihydro-1,3,6,9a-tetraazabenzo[cd]azulene-7(6H)-one] | 100 to 1000 nM | 10 to 100 nM | – |
| CC(=O)N1CCc2nn(-c3cc[nH]n3)c3nc(N4CCOC[C@H]4C)cc(c23)C1 [Compound 5] | 100 to 1000 nM | 10 to 100 nM | – |
| C[C@@H]1COCCN1c1cc2c3c(n1)c(-c1cc[nH]n1)nn3CCCN2CC(C)(C)O [Compound 123, (R)-2-methyl-1-(4-(3-methylmorpholinyl)-2-(1H-pyrazol-3-yl)-8,9-dihydro-1,3,6,9a-tetraazabenzo[cd]azulene-6(7H)-yl)propan-2-ol] | – | – | IC50 [1, 5]: 100 to 1000 nM; IC50 [2, 6]: 10 to 100 nM |
| C[C@@H]1COCCN1c1cc2c3c(n1)c(-c1cc[nH]n1)nn3CCC(=O)N2CC1CC1 [Compound 83, (R)-6-(cyclopropylmethyl)-4-(3-methylmorpholino)-2-(1H-pyrazol-3-yl)-8,9-dihydro-1,3,6,9a-tetraazabenzo[cd]azulene-7(6H)-one] | < 100 nM | 10 to 100 nM | – |
